Several values for one entry are separate records, joined by “and”; a condition that tells them apart may be missing. Equal values may be shown once. Toxic doses and inconclusive results are not listed.
Tested on: CD2F1 mice, L1210 leukemia ip, survival T/C
Assay: NCI In Vivo Anticancer Drug Screen. Data for tumor model L1210 Leukemia (intraperitoneal) in CD2F1 (CDF1) mice
Conditions: higher = longer survival
How it was run: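 Activity against a transplanted murine tumor was judged by comparing the compound group with a vehicle group. The outcome in the treated animals was divided by that in the controls.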

[1] = endpoint: mean survival time, dose: 100.0 mg/kg/injection, schedule: Q01DX009 (ip), vehicle: saline with Tween-80
[2] = endpoint: mean survival time, dose: 200.0 mg/kg/injection, schedule: Q01DX009 (ip), vehicle: saline with Tween-80
[3] = endpoint: mean survival time, dose: 400.0 mg/kg/injection, schedule: Q01DX009 (ip), vehicle: saline with Tween-80
[4] = endpoint: mean survival time, dose: 100.0 mg/kg/injection, schedule: Q01DX001 (ip), vehicle: saline
[5] = endpoint: mean survival time, dose: 100.0 mg/kg/injection, schedule: Q04DX003 (ip), vehicle: saline
[6] = endpoint: mean survival time, dose: 200.0 mg/kg/injection, schedule: Q01DX001 (ip), vehicle: saline
[7] = endpoint: mean survival time, dose: 200.0 mg/kg/injection, schedule: Q04DX003 (ip), vehicle: saline
[8] = endpoint: mean survival time, dose: 400.0 mg/kg/injection, schedule: Q01DX001 (ip), vehicle: saline
[9] = endpoint: mean survival time, dose: 400.0 mg/kg/injection, schedule: Q04DX003 (ip), vehicle: saline
[10] = endpoint: mean survival time, dose: 100.0 mg/kg/injection, schedule: Q01DX001 (ip), vehicle: saline with Tween-80
[11] = endpoint: mean survival time, dose: 200.0 mg/kg/injection, schedule: Q01DX001 (ip), vehicle: saline with Tween-80
[12] = endpoint: mean survival time, dose: 400.0 mg/kg/injection, schedule: Q01DX001 (ip), vehicle: saline with Tween-80
[13] = endpoint: mean survival time, dose: 12.5 mg/kg/injection, schedule: Q01DX009 (ip), vehicle: Klucel (hydroxypropylcellulose) (HPC)
[14] = endpoint: mean survival time, dose: 25.0 mg/kg/injection, schedule: Q01DX009 (ip), vehicle: Klucel (hydroxypropylcellulose) (HPC)
[15] = endpoint: mean survival time, dose: 200.0 mg/kg/injection, schedule: Q01DX009 (ip), vehicle: Klucel (hydroxypropylcellulose) (HPC)
[16] = endpoint: mean survival time, dose: 400.0 mg/kg/injection, schedule: Q01DX009 (ip), vehicle: Klucel (hydroxypropylcellulose) (HPC)
[17] = endpoint: mean survival time, dose: 50.0 mg/kg/injection, schedule: Q04DX003 (ip), vehicle: saline
[18] = endpoint: mean survival time, dose: 100.0 mg/kg/injection, schedule: Q04DX002 (ip), vehicle: saline with Tween-80
[19] = endpoint: mean survival time, dose: 200.0 mg/kg/injection, schedule: Q04DX002 (ip), vehicle: saline with Tween-80
[20] = endpoint: mean survival time, dose: 400.0 mg/kg/injection, schedule: Q04DX002 (ip), vehicle: saline with Tween-80
[21] = endpoint: mean survival time, dose: 12.5 mg/kg/injection, schedule: Q04DX003 (ip), vehicle: saline with Tween-80
[22] = endpoint: mean survival time, dose: 25.0 mg/kg/injection, schedule: Q04DX003 (ip), vehicle: saline with Tween-80
[23] = endpoint: mean survival time, dose: 50.0 mg/kg/injection, schedule: Q04DX003 (ip), vehicle: saline with Tween-80
[24] = endpoint: mean survival time, dose: 100.0 mg/kg/injection, schedule: Q04DX003 (ip), vehicle: saline with Tween-80

C=C1C(=O)O[C@@H]2/C=C(/C)[C@@]3(O)C=C[C@](C)(C[C@@H](OC(=O)/C(=C\C)COC(C)=O)[C@@H]12)O3
T/C (endpoint: mean survival time, dose: 6.0 mg/kg/injection, schedule: Q01DX009 (ip), vehicle: saline with Tween-80): 88 % of control
T/C (endpoint: mean survival time, dose: 8.0 mg/kg/injection, schedule: Q01DX009 (ip), vehicle: saline with Tween-80): 94 % of control
T/C (endpoint: mean survival time, dose: 12.0 mg/kg/injection, schedule: Q01DX009 (ip), vehicle: saline with Tween-80): 94 % of control
T/C (endpoint: mean survival time, dose: 18.0 mg/kg/injection, schedule: Q01DX009 (ip), vehicle: saline with Tween-80): 98 % of control
T/C (endpoint: mean survival time, dose: 27.0 mg/kg/injection, schedule: Q01DX009 (ip), vehicle: saline with Tween-80): 93 % of control

CC(C)(CC(=O)O)CC(=O)O.[NH-]C1CCCCC1[NH-].[Pt+2]
T/C (endpoint: median survival time, dose: 3.12 mg/kg/injection, schedule: Q04DX003 (ip), vehicle: saline): 87 % of control
T/C (endpoint: median survival time, dose: 6.25 mg/kg/injection, schedule: Q04DX003 (ip), vehicle: saline): 102 % of control
T/C (endpoint: median survival time, dose: 12.5 mg/kg/injection, schedule: Q04DX003 (ip), vehicle: saline): 98 % of control
T/C (endpoint: median survival time, dose: 25.0 mg/kg/injection, schedule: Q04DX003 (ip), vehicle: saline): 108 % of control
T/C (endpoint: median survival time, dose: 50.0 mg/kg/injection, schedule: Q04DX003 (ip), vehicle: saline): 101 % of control
T/C (endpoint: median survival time, dose: 100.0 mg/kg/injection, schedule: Q04DX003 (ip), vehicle: saline): 103 % of control
T/C (endpoint: median survival time, dose: 200.0 mg/kg/injection, schedule: Q04DX003 (ip), vehicle: saline): 112 % of control

CC(NC(=O)NCCCl)c1ccccc1 (stereo not given)
T/C (endpoint: mean survival time, dose: 25.0 mg/kg/injection, schedule: Q01DX009 (ip), vehicle: saline): 88 % of control
T/C (endpoint: mean survival time, dose: 50.0 mg/kg/injection, schedule: Q01DX009 (ip), vehicle: saline): 86 % of control

C=C(Cl)CSCCO
T/C [1]: 100 % of control
T/C [2]: 104 % of control
T/C [3]: 98 % of control

COc1ccc(/C=N/N=C(/C(=O)c2ccc(OC)cc2)c2ccc(OC)cc2)cc1
T/C [4]: 95 % of control
T/C [5]: 102 % of control
T/C [6]: 91 % of control
T/C [7]: 97 % of control
T/C [8]: 95 % of control
T/C [9]: 96 % of control

O=C(O)/C=C/C(=O)Nc1cccc(Oc2ccc([N+](=O)[O-])cc2[N+](=O)[O-])c1
T/C (endpoint: mean survival time, dose: 100.0 mg/kg/injection, schedule: Q01DX009 (ip), vehicle: saline): 96 % of control
T/C (endpoint: mean survival time, dose: 200.0 mg/kg/injection, schedule: Q01DX009 (ip), vehicle: saline): 100 % of control
T/C (endpoint: mean survival time, dose: 400.0 mg/kg/injection, schedule: Q01DX009 (ip), vehicle: saline): 98 % of control

COc1ccccc1N=Nc1c(O)n(-c2ccccc2OC)c(=S)n(-c2ccc(I)cc2)c1=O
T/C [10]: 96 % of control
T/C [11]: 93 % of control
T/C [12]: 95 % of control

O=[N+]([O-])c1ccc(N/N=C/c2cccc(CO)c2)c([N+](=O)[O-])c1
T/C [5]: 94 % of control
T/C [7]: 88 % of control
T/C [9]: 96 % of control

NC(=O)c1ncn(C2OC(CO)C(O)C2O)c1O (stereo not given)
T/C [13]: 122 % of control
T/C [14]: 113 % of control and 120 % of control
T/C [15]: 116 % of control and 106 % of control
T/C [16]: 120 % of control and 93 % of control and 110 % of control

Cc1ccc(S(=O)(=O)/C=C(\I)c2ccc([N+](=O)[O-])cc2)cc1
T/C [17]: 96 % of control
T/C [5]: 87 % of control

CC1CN=C(c2ccc(NC(=O)c3ccc(C(=O)Nc4ccc(C5=NCC(C)N5)cc4)cc3)cc2)N1 (stereo not given)
T/C [13]: 212 % of control
T/C [14]: 269 % of control
T/C (endpoint: mean survival time, dose: 50.0 mg/kg/injection, schedule: Q01DX009 (ip), vehicle: Klucel (hydroxypropylcellulose) (HPC)): 290 % of control
T/C (endpoint: mean survival time, dose: 100.0 mg/kg/injection, schedule: Q01DX009 (ip), vehicle: Klucel (hydroxypropylcellulose) (HPC)): 305 % of control
T/C [15]: 333 % of control
T/C [16]: 288 % of control

CC[N+]1(C)CCC(CN2c3ccccc3Sc3ccccc32)C1 (stereo not given)
T/C [1]: 93 % of control
T/C [2]: 98 % of control
T/C [3]: 110 % of control

Cc1cc(C(=O)O)c(CC(=O)O)o1
T/C [18]: 104 % of control
T/C [19]: 104 % of control
T/C [20]: 86 % of control

C[N+]1(C)CCC(OC(=O)C(O)(c2ccccc2)C2CCCC2)C1 (stereo not given)
T/C (endpoint: mean survival time, dose: 3.13 mg/kg/injection, schedule: Q04DX003 (ip), vehicle: saline): 87 % of control
T/C (endpoint: mean survival time, dose: 6.25 mg/kg/injection, schedule: Q04DX003 (ip), vehicle: saline): 98 % of control
T/C [21]: 100 % of control
T/C (endpoint: mean survival time, dose: 12.5 mg/kg/injection, schedule: Q04DX003 (ip), vehicle: saline): 90 % of control
T/C (endpoint: mean survival time, dose: 25.0 mg/kg/injection, schedule: Q01DX001 (ip), vehicle: saline): 104 % of control
T/C [22]: 94 % of control
T/C (endpoint: mean survival time, dose: 25.0 mg/kg/injection, schedule: Q04DX003 (ip), vehicle: saline): 103 % of control
T/C (endpoint: mean survival time, dose: 50.0 mg/kg/injection, schedule: Q01DX001 (ip), vehicle: saline): 106 % of control
T/C [23]: 103 % of control
T/C [17]: 95 % of control
T/C [4]: 102 % of control and 105 % of control
T/C (endpoint: mean survival time, dose: 100.0 mg/kg/injection, schedule: Q04DX002 (ip), vehicle: saline): 97 % of control
T/C [24]: 108 % of control
T/C [5]: 113 % of control and 88 % of control
T/C (endpoint: mean survival time, dose: 200.0 mg/kg/injection, schedule: Q04DX002 (ip), vehicle: saline): 112 % of control
T/C (endpoint: mean survival time, dose: 400.0 mg/kg/injection, schedule: Q04DX002 (ip), vehicle: saline): 104 % of control

COc1ccc2c(c1)CCC1C2CCC2(C)C(=O)NC(=O)N12 (stereo not given)
T/C (endpoint: mean survival time, dose: 25.0 mg/kg/injection, schedule: Q04DX002 (ip), vehicle: saline with Tween-80): 93 % of control
T/C (endpoint: mean survival time, dose: 50.0 mg/kg/injection, schedule: Q04DX002 (ip), vehicle: saline with Tween-80): 86 % of control
T/C [10]: 86 % of control
T/C [18]: 86 % of control and 90 % of control
T/C [12]: 93 % of control
T/C [20]: 86 % of control

C=CCN(CC=C)CCNc1cc(C)nc(Nc2nc3ccc(Cl)cc3[nH]2)n1
T/C [10]: 94 % of control
T/C [1]: 86 % of control
T/C [11]: 92 % of control
T/C [2]: 93 % of control
T/C [12]: 94 % of control
T/C [3]: 100 % of control

CC(C)(C)N(Cc1ccccc1)Cc1ccccc1
T/C [1]: 102 % of control
T/C [2]: 98 % of control
T/C [3]: 101 % of control

NC(=O)c1cn(C2CCCCC2)c2ncccc12
T/C [4]: 96 % of control
T/C [6]: 96 % of control
T/C [8]: 102 % of control

CC1(CCOCc2ccccc2)NC(=O)NC1=O (stereo not given)
T/C [1]: 95 % of control
T/C [24]: 97 % of control
T/C [2]: 95 % of control
T/C (endpoint: mean survival time, dose: 200.0 mg/kg/injection, schedule: Q04DX003 (ip), vehicle: saline with Tween-80): 98 % of control
T/C [3]: 98 % of control
T/C (endpoint: mean survival time, dose: 400.0 mg/kg/injection, schedule: Q04DX003 (ip), vehicle: saline with Tween-80): 98 % of control

O=C(NCC(S)c1ccc(Cl)cc1)C(F)(F)F (stereo not given)
T/C [21]: 96 % of control
T/C [22]: 90 % of control
T/C [23]: 96 % of control

CCOC(=O)C(C(=O)OCC)C1CCC2(C)CCC(=O)C=C2C1 (stereo not given)
T/C [18]: 100 % of control and 107 % of control and 108 % of control
T/C [19]: 100 % of control and 101 % of control and 104 % of control
T/C [20]: 98 % of control and 100 % of control
T/C (endpoint: mean survival time, dose: 600.0 mg/kg/injection, schedule: Q04DX002 (ip), vehicle: saline with Tween-80): 109 % of control

CCCCCC(C=O)C(O)(C(F)(F)F)C(F)(F)Cl (stereo not given)
T/C (endpoint: mean survival time, dose: 100.0 mg/kg/injection, schedule: Q04DX003 (ip), vehicle: Klucel (hydroxypropylcellulose) (HPC)): 96 % of control
T/C (endpoint: mean survival time, dose: 200.0 mg/kg/injection, schedule: Q04DX003 (ip), vehicle: Klucel (hydroxypropylcellulose) (HPC)): 91 % of control
T/C (endpoint: mean survival time, dose: 400.0 mg/kg/injection, schedule: Q04DX003 (ip), vehicle: Klucel (hydroxypropylcellulose) (HPC)): 96 % of control

Reference: PubChem BioAssay AID256 (DTP/NCI, 2004)
